Measurements as given in patent US9725442B2, “Heterocyclic derivative having PGD2 receptor antagonist activity” (Shionogi & Co., Ltd., priority 2011, dated 2017).
Read-outs that look alike come from different tables or passages of the source.

Assays:
Human DP1 receptor = Human DP1 receptor (Homo sapiens (Human), UniProt Q13258); experiment: Human DP1 inhibitory activity in DP1-expressing cell (PGD2-induced cAMP); type: cell-based; conditions: category of cAMP IC50, human DP1 receptor expressing Jurkut cell
Sequence of Human DP1 receptor (Q13258 whole entry): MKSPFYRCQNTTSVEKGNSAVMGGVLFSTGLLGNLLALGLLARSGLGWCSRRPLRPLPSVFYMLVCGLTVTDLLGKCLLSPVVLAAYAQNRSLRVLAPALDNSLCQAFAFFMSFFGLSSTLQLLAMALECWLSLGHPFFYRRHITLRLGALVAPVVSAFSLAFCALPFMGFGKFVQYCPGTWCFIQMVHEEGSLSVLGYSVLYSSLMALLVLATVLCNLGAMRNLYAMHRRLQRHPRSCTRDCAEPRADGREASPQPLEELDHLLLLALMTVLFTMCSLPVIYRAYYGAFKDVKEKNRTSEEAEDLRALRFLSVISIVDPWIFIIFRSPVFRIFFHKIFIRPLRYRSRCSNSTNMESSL
Method: Compounds were categorized as AA (cAMP is less than 100 nM) and A (cAMP is more than 100 nM and less than 5000 nM) as shown in Table 99 and 100.

CRTH2 = CRTH2 (Homo sapiens (Human), UniProt Q9Y5Y4); experiment: CRTH2 receptor binding inhibitory activity ([3H]-PGD2 displacement, membranes of CRTH2-expressing K562 cell)
Sequence of CRTH2 (Q9Y5Y4 whole entry): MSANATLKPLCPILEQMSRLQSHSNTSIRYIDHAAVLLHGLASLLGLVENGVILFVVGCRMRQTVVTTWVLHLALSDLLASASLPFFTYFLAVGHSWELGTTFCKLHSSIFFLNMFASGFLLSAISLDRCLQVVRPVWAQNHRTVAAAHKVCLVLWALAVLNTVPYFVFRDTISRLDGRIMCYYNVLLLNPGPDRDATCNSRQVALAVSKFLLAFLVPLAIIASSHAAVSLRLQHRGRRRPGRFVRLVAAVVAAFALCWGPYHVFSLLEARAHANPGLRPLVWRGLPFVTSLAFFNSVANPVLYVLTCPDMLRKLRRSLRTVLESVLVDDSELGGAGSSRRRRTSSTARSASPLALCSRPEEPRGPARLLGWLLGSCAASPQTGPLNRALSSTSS
Method: Cell membrane was prepared from CRTH2-expressing K562 cell. The cell membrane (20 μg/well) was mixed with reaction buffer (50 mM Tris/HCl, pH 7.4, 10 mM MgCl2). Then, [^3H]-PGD2 was added to the mixture and incubated for 60 min at room temperature. […] Then, the mixture was filtrated with glass paper immediately. The filter paper was washed several times and radio activity on the filter was measured. Specific binding was defined as difference between total and non-specific binding (radio activity with 10 μM PGD2). Ki values for each compound were calculated from displacement curve.

[1] = CRTH2 receptor binding, [3H]-PGD2 displacement, membrane of CRTH2-expressing K562 cell, categorized AAAA/AAA, read-out: Ki
[2] = [3H]-PGD2 displacement, membrane of CRTH2-expressing K562 cell, read-out: Ki

Row | Structure (SMILES) | IC50 (Human DP1 receptor) [nM] | Ki (CRTH2; [1]) [nM] | Ki (CRTH2; [2]) [nM] | Ki (CRTH2) [nM]
1 | CC(C)Oc1ccc(S(=O)(=O)N2C[C@H](n3nc(CC(=O)O)c4ccc(F)cc43)C[C@@H]2Cn2ccnc2)cc1 [Compound I-20] | 100 to 5000 | < 100 |  | 
2 | CC(C)Oc1ccc(S(=O)(=O)N2C[C@H](n3nc(CC(=O)O)c4ccc(F)cc43)C[C@@H]2C(F)F)cc1 [Compound I-22] | < 100 | < 100 |  | 
3 | Cc1cccn(C[C@H]2C[C@@H](n3nc(CC(=O)O)c4ccc(F)cc43)CN2S(=O)(=O)c2ccc(OC(C)C)cc2)c1=O [Compound I-23] | 100 to 5000 | < 100 |  | 
4 | CC(C)Oc1ccc(S(=O)(=O)N2C[C@H](n3nc(CC(=O)O)c4ccc(F)cc43)CC2(C)C)cc1 [Compound I-24] | 100 to 5000 | < 100 |  | 
5 | CC(C)Oc1ccc(S(=O)(=O)N2C[C@H](O)[C@@H](n3nc(CC(=O)O)c4ccc(F)cc43)C2)cc1 [Compound I-25] | 100 to 5000 | < 100 |  | 
6 | CC(C)Oc1ccc(S(=O)(=O)N2CC(F)[C@@H](n3nc(CC(=O)O)c4ccc(F)cc43)C2)cc1 (stereo partly shown) [Compound I-26] | 100 to 5000 | < 100 |  | 
7 | CC(C)Oc1ccc(S(=O)(=O)N2CC(=O)C(n3nc(CC(=O)O)c4ccc(F)cc43)C2)cc1 (stereo not shown) [Compound I-27] | 100 to 5000 | < 100 |  | 
8 | CC(C)Oc1ccc(S(=O)(=O)N2CC=C(n3nc(CC(=O)O)c4ccc(F)cc43)C2)cc1 [Compound I-28] | < 100 | 100 to 5000 |  | 
9 | CC(C)Oc1ccc(S(=O)(=O)N2C[C@@H](C)[C@@H](n3nc(CC(=O)O)c4ccc(F)cc43)C2)cc1 [Compound I-29] | < 100 | < 100 |  | 
10 | CO[C@@H]1CN(S(=O)(=O)c2ccc(OC(C)C)cc2)C[C@@H]1n1nc(CC(=O)O)c2ccc(F)cc21 [Compound I-30] | 100 to 5000 | 100 to 5000 | 140 | 
11 | C=CC[C@@H]1CN(S(=O)(=O)c2ccc(OC(C)C)cc2)C[C@@H]1n1nc(CC(=O)O)c2ccc(F)cc21 [Compound I-32] | < 100 | < 100 |  | 
12 | CCC[C@@H]1CN(S(=O)(=O)c2ccc(OC(C)C)cc2)C[C@@H]1n1nc(CC(=O)O)c2ccc(F)cc21 [Compound I-34] | < 100 | < 100 | 77 | 
13 | CC(C)Oc1ccc(S(=O)(=O)N2C[C@@H](C)[C@@H](n3nc(CC(=O)O)c4ccccc43)C2)cc1 [Compound I-35] | < 100 | < 100 |  | 
14 | CC(C)Oc1ccc(S(=O)(=O)N2C[C@@H](n3nc(CC(=O)O)c4ccc(F)cc43)[C@@H](C)C2)cc1 [Compound I-36] | 100 to 5000 | < 100 |  | 
15 | C=C[C@@H]1CN(S(=O)(=O)c2ccc(OC(C)C)cc2)C[C@@H]1n1nc(CC(=O)O)c2ccc(F)cc21 [Compound I-38] | < 100 | < 100 |  | 
16 | CC[C@@H]1CN(S(=O)(=O)c2ccc(OC(C)C)cc2)C[C@@H]1n1nc(CC(=O)O)c2ccc(F)cc21 [Compound I-39] | < 100 | < 100 |  | 
17 | CC(C)Oc1ccc(S(=O)(=O)N2C[C@@H](CCO)[C@@H](n3nc(CC(=O)O)c4ccc(F)cc43)C2)cc1 [Compound I-40] | 100 to 5000 | < 100 |  | 
18 | CC(C)Oc1ccc(S(=O)(=O)N2C[C@@H](C3CC3)[C@@H](n3nc(CC(=O)O)c4ccc(F)cc43)C2)cc1 [Compound I-41] | 100 to 5000 | < 100 |  | 
19 | CC(C)Oc1ccc(S(=O)(=O)N2C[C@@H](CF)[C@@H](n3nc(CC(=O)O)c4ccc(F)cc43)C2)cc1 [Compound I-42] | 100 to 5000 | < 100 |  | 
20 | C=C1CN(S(=O)(=O)c2ccc(OC(C)C)cc2)CC1n1nc(CC(=O)O)c2ccc(F)cc21 (stereo not shown) [Compound I-43] | 100 to 5000 | < 100 |  | 
21 | CC(C)Oc1ccc(S(=O)(=O)N2C[C@@H](CC(F)F)[C@@H](n3nc(CC(=O)O)c4ccc(F)cc43)C2)cc1 [Compound I-44] | 100 to 5000 | < 100 |  | 
22 | CC(C)Oc1ccc(S(=O)(=O)N2C[C@@H](CCF)[C@@H](n3nc(CC(=O)O)c4ccc(F)cc43)C2)cc1 [Compound I-45] | 100 to 5000 | < 100 |  | 
23 | CC(C)Oc1ccc(S(=O)(=O)N2C[C@H](n3nc(CC(=O)O)c4ccc(F)cc43)C[C@@H]2C)cc1 [Compound I-46] | < 100 | < 100 |  | 

Row | Structure (SMILES) | IC50 (Human DP1 receptor) [nM] | Ki (CRTH2; [1]) [nM] | Ki (CRTH2; [2]) [nM] | Ki (CRTH2) [nM]
24 | C[C@@H]1CN(S(=O)(=O)c2ccc(F)cc2)C[C@@H]1n1nc(CC(=O)O)c2ccc(F)cc21 [Compound I-48] | 100 to 5000 | < 100 |  | 
25 | C[C@@H]1CN(S(=O)(=O)c2ccc(C3CC3)cc2Cl)C[C@@H]1n1nc(CC(=O)O)c2ccc(F)cc21 [Compound I-53] | < 100 | < 100 |  | 
26 | CC(C)Oc1ccc(S(=O)(=O)N2C[C@H](n3nc(CC(=O)O)c4ccc(F)cc43)CC23CC3)cc1 [Compound I-54] | 100 to 5000 | < 100 |  | 
27 | CC(C)Oc1ccc(S(=O)(=O)N2C[C@H](n3nc(CC(=O)O)c4ccc(F)cc43)C[C@@H]2c2nc[nH]n2)cc1 [Compound I-55] | 100 to 5000 | 100 to 5000 |  | 
28 | CC(C)Oc1ccc(S(=O)(=O)N2C[C@@H](C)[C@@H](n3nc(CC(=O)O)c4ccc(F)cc43)C2)c(C#N)c1 [Compound I-58] | < 100 | < 100 |  | 
29 | CC(C)Oc1ccc(S(=O)(=O)N2C[C@@H](C)[C@@H](n3nc(CC(=O)O)c4cccc(F)c43)C2)cc1 [Compound I-59] | 100 to 5000 | < 100 | 23 | 
30 | CC(C)Oc1ccc(S(=O)(=O)N2C[C@H](n3nc(CC(=O)O)c4cccc(F)c43)C[C@@H]2C)cc1 [Compound I-60] | < 100 | 100 to 5000 |  | 
31 | CC(C)Oc1ccc(S(=O)(=O)N2C[C@@H](C)[C@@H](n3nc(CC(=O)O)c4cccc(Cl)c43)C2)cc1 [Compound I-61] | 100 to 5000 | < 100 |  | 
32 | Cc1ccc2c(CC(=O)O)nn([C@H]3CN(S(=O)(=O)c4ccc(OC(C)C)cc4)C[C@H]3C)c2c1 [Compound I-62] | < 100 | < 100 |  | 
33 | Cc1ccc2c(CC(=O)O)nn([C@H]3CN(S(=O)(=O)c4ccc(OC(C)C)cc4)C[C@H]3C)c2c1 [Compound I-63] | < 100 |  | 3.1 | 
34 | CC(C)Oc1ccc(S(=O)(=O)N2C[C@@H](CO)[C@@H](n3nc(CC(=O)O)c4ccc(F)cc43)C2)cc1 [Compound I-64] | 100 to 5000 | < 100 |  | 
35 | CON=C[C@@H]1CN(S(=O)(=O)c2ccc(OC(C)C)cc2)C[C@@H]1n1nc(CC(=O)O)c2ccc(F)cc21 [Compound I-65] | 100 to 5000 | < 100 |  | 
36 | CC(C)Oc1ccc(S(=O)(=O)N2C[C@@H](C)[C@@H](n3nc(CC(=O)O)c4cc(F)c(F)cc43)C2)cc1 [Compound I-68] | < 100 | < 100 |  | 
37 | CC(C)Oc1ccc(S(=O)(=O)N2C[C@@H](C)[C@@H](n3nc(CC(=O)O)c4cc(F)ccc43)C2)cc1 [Compound I-69] | < 100 | 100 to 5000 |  | 
38 | CC(C)Oc1ccc(S(=O)(=O)N2CC[C@H](n3nc(CC(=O)O)c4ccc(F)cc43)C[C@H]2CO)cc1 [Compound I-72] | 100 to 5000 | 100 to 5000 |  | 
39 | CC(C)Oc1ccc(S(=O)(=O)N2[C@H](C)C[C@H](n3nc(CC(=O)O)c4ccc(F)cc43)C[C@@H]2C)cc1 [Compound I-73] | < 100 | 100 to 5000 |  | 
40 | CC(C)Oc1ccc(S(=O)(=O)N2CC[C@H](n3nc(CC(=O)O)c4ccc(F)cc43)C[C@@H]2C)cc1 [Compound I-76] | < 100 | 100 to 5000 |  | 
41 | C[C@H]1C[C@@H](n2nc(CC(=O)O)c3ccc(F)cc32)CCN1S(=O)(=O)c1ccc(F)cc1 [Compound I-77] | 100 to 5000 | < 100 | 48 | 
42 | CC(C)Oc1ccc(S(=O)(=O)N2CC[C@H](n3nc(CC(=O)O)c4ccc(F)cc43)C[C@H]2C)cc1 [Compound I-78] | 100 to 5000 | 100 to 5000 |  | 
43 | C[C@@H]1C[C@@H](n2nc(CC(=O)O)c3ccc(F)cc32)CCN1S(=O)(=O)c1ccc(F)cc1 [Compound I-79] | 100 to 5000 | 100 to 5000 |  | 
44 | O=C(O)Cc1nn([C@@H]2C[C@H]3CC[C@@H](C2)N3S(=O)(=O)c2ccc(F)cc2)c2cc(F)ccc12 [Compound I-80] | 100 to 5000 |  |  | 100 to 5000
45 | CC(C)Oc1ccc(S(=O)(=O)N2[C@@H]3CC[C@H]2C[C@H](n2nc(CC(=O)O)c4ccc(F)cc42)C3)cc1 [Compound I-81] | 100 to 5000 |  |  | 100 to 5000
